Tests used:
Type in all cases: in vivo
[1] = test system: galium (catchweed bedstraw, Galium aparine); assay: Test A postemergence, galium; details: postemergence, 0 to 100 scale, 0 is no effect, 100 is complete control, approximately 10 days
From the text: (§1) Seeds of plant species selected from barnyardgrass (Echinochloa crus-galli), kochia (Kochia scoparia), ragweed (common ragweed, Ambrosia elatior), ryegrass, Italian (Italian ryegrass, Lolium multiflorum), foxtail, giant (giant foxtail, Setaria faberii), and pigweed (Amaranthus retroflexus), were planted into a blend of loam soil and sand and treated preemergence with a directed soil spray using test chemicals formulated in a non-phytotoxic solvent mixture which included a surfactant.
(§2) At the same time, plants selected from these weed species and also wheat (Triticum aestivum), corn (Zea mays), blackgrass (Alopecurus myosuroides), and galium (catchweed bedstraw, Galium aparine), were planted in pots containing the same blend of loam soil and sand and treated with postemergence applications of test chemicals formulated in the same manner. Plants ranged in height from 2 to 10 cm and were in the one- to two-leaf stage for the postemergence treatment. Treated plants and untreated controls were maintained in a greenhouse for approximately 10 days, after which time all treated plants were compared to untreated controls and visually evaluated for injury. Plant response ratings, summarized in Table A, are based on a 0 to 100 scale where 0 is no effect and 100 is complete control. A dash (—) response means no test result.

[2] = test system: ryegrass, Italian (Italian ryegrass, Lolium multiflorum); assay: Test A preemergence, Italian ryegrass; details: Preemergence, 0 to 100 scale (0 no effect, 100 complete control)
From the text: as §1, §2

kochia (Kochia scoparia) [3] = assay: Test A postemergence, kochia; details: postemergence, 0 to 100 scale, 0 is no effect, 100 is complete control, approximately 10 days
From the text: as §1, §2

[4] = test system: barnyardgrass (Echinochloa crus-galli); assay: Test A preemergence, barnyardgrass; details: Preemergence, 0 to 100 scale (0 no effect, 100 complete control)
From the text: as §1, §2

[5] = test system: foxtail, giant (giant foxtail, Setaria faberii); assay: Test A preemergence, giant foxtail; details: Preemergence, 0 to 100 scale (0 no effect, 100 complete control)
From the text: as §1, §2

[6] = test system: blackgrass (Alopecurus myosuroides); assay: Test A postemergence, blackgrass; details: postemergence, 0 to 100 scale, 0 is no effect, 100 is complete control, approximately 10 days
From the text: as §1, §2

[7] = test system: wheat (Triticum aestivum); assay: Test A postemergence, wheat; details: postemergence, 0 to 100 scale, 0 is no effect, 100 is complete control, approximately 10 days
From the text: as §1, §2

[8] = test system: ragweed (common ragweed, Ambrosia elatior); assay: Test A postemergence, ragweed; details: postemergence, 0 to 100 scale, 0 is no effect, 100 is complete control, approximately 10 days
From the text: as §1, §2

[9] = test system: ragweed (common ragweed, Ambrosia elatior); assay: Test A preemergence, ragweed; details: Preemergence, 0 to 100 scale (0 no effect, 100 complete control)
From the text: as §1, §2

corn (Zea mays) = assay: Test A postemergence, corn; details: postemergence, 0 to 100 scale, 0 is no effect, 100 is complete control, approximately 10 days
From the text: as §1, §2

[10] = test system: foxtail, giant (giant foxtail, Setaria faberii); assay: Test A postemergence, giant foxtail; details: postemergence, 0 to 100 scale, 0 is no effect, 100 is complete control, approximately 10 days
From the text: as §1, §2

kochia (Kochia scoparia) [11] = assay: Test A preemergence, kochia; details: Preemergence, 0 to 100 scale (0 no effect, 100 complete control)
From the text: as §1, §2

[12] = test system: ryegrass, Italian (Italian ryegrass, Lolium multiflorum); assay: Test A postemergence, Italian ryegrass; details: postemergence, 0 to 100 scale, 0 is no effect, 100 is complete control, approximately 10 days
From the text: as §1, §2

[13] = test system: pigweed (Amaranthus retroflexus); assay: Test A preemergence, pigweed; details: Preemergence, 0 to 100 scale (0 no effect, 100 complete control)
From the text: as §1, §2

[14] = test system: barnyardgrass (Echinochloa crus-galli); assay: Test A postemergence, barnyardgrass; details: postemergence, 0 to 100 scale, 0 is no effect, 100 is complete control, approximately 10 days
From the text: as §1, §2

[15] = test system: pigweed (Amaranthus retroflexus); assay: Test A postemergence, pigweed; details: postemergence, 0 to 100 scale, 0 is no effect, 100 is complete control, approximately 10 days
From the text: as §1, §2

SMILES | Plant response rating, Galium ([1]; 31 g ai/ha) | Plant response rating, Galium ([1]; 125 g ai/ha) | Plant response rating, Ryegrass, Italian ([2]; 31 g ai/ha) | Plant response rating, Ryegrass, Italian ([2]; 125 g ai/ha) | Plant response rating, Kochia (kochia (Kochia scoparia) [3]; 31 g ai/ha) | Plant response rating, Kochia (kochia (Kochia scoparia) [3]; 125 g ai/ha) | Plant response rating, Barnyardgrass ([4]; 31 g ai/ha) | Plant response rating, Barnyardgrass ([4]; 125 g ai/ha) | Plant response rating, Foxtail, Giant ([5]; 31 g ai/ha) | Plant response rating, Foxtail, Giant ([5]; 125 g ai/ha) | Plant response rating, Blackgrass ([6]; 31 g ai/ha) | Plant response rating, Blackgrass ([6]; 125 g ai/ha) | Plant response rating, Wheat ([7]; 31 g ai/ha) | Plant response rating, Wheat ([7]; 125 g ai/ha) | Plant response rating, Ragweed ([8]; 31 g ai/ha) | Plant response rating, Ragweed ([8]; 125 g ai/ha) | Plant response rating, Ragweed ([9]; 31 g ai/ha) | Plant response rating, Ragweed ([9]; 125 g ai/ha) | Plant response rating, Corn (corn (Zea mays); 31 g ai/ha) | Plant response rating, Corn (corn (Zea mays); 125 g ai/ha) | also measured
N#CCCCOc1c(C#N)cccc1Oc1ncc(F)cn1 [Compound 37] | 40 | 60 | 0 | 0 | 50 | 80 | 0 | 20 | 20 | 50 | 0 | 10 | 0 | 0 | 30 | 50 | 30 | 70 | 0 | 20 | Plant response rating, Foxtail, Giant ([10]; 31 g ai/ha): 0; Plant response rating, Foxtail, Giant ([10]; 125 g ai/ha): 10; Plant response rating, Kochia (kochia (Kochia scoparia) [11]; 31 g ai/ha): 30; Plant response rating, Kochia (kochia (Kochia scoparia) [11]; 125 g ai/ha): 80; Plant response rating, Ryegrass, Italian ([12]; 31 g ai/ha): 0; Plant response rating, Ryegrass, Italian ([12]; 125 g ai/ha): 0; Plant response rating, Pigweed ([13]; 31 g ai/ha): 100; Plant response rating, Pigweed ([13]; 125 g ai/ha): 100; Plant response rating, Barnyardgrass ([14]; 31 g ai/ha): 10; Plant response rating, Barnyardgrass ([14]; 125 g ai/ha): 20; Plant response rating, Pigweed ([15]; 31 g ai/ha): 60; Plant response rating, Pigweed ([15]; 125 g ai/ha): 70
N#Cc1cccc(Oc2ncc(Cl)cn2)c1OC/C=C/Cl [Compound 7] | 50 | 80 | 0 | 10 | 90 | 100 | 20 | 100 | 60 | 100 | 10 | 30 | 0 | 10 | 0 | 10 | 0 | 0 | 10 | 20 | Plant response rating, Foxtail, Giant ([10]; 31 g ai/ha): 10; Plant response rating, Foxtail, Giant ([10]; 125 g ai/ha): 90; Plant response rating, Kochia (kochia (Kochia scoparia) [11]; 31 g ai/ha): 70; Plant response rating, Kochia (kochia (Kochia scoparia) [11]; 125 g ai/ha): 100; Plant response rating, Ryegrass, Italian ([12]; 31 g ai/ha): 10; Plant response rating, Ryegrass, Italian ([12]; 125 g ai/ha): 50; Plant response rating, Pigweed ([13]; 31 g ai/ha): 60; Plant response rating, Pigweed ([13]; 125 g ai/ha): 100; Plant response rating, Barnyardgrass ([14]; 31 g ai/ha): 10; Plant response rating, Barnyardgrass ([14]; 125 g ai/ha): 90; Plant response rating, Pigweed ([15]; 31 g ai/ha): 60; Plant response rating, Pigweed ([15]; 125 g ai/ha): 90
N#Cc1cccc(Oc2ncc(F)cn2)c1OC/C=C/Cl [Compound 36] | 40 | 50 | 0 | 0 | 80 | 90 | 30 | 80 | 30 | 90 | 10 | 50 | 0 | 0 | 20 | 40 | 0 | 0 | 0 | 20 | Plant response rating, Foxtail, Giant ([10]; 31 g ai/ha): 0; Plant response rating, Foxtail, Giant ([10]; 125 g ai/ha): 50; Plant response rating, Kochia (kochia (Kochia scoparia) [11]; 31 g ai/ha): 10; Plant response rating, Kochia (kochia (Kochia scoparia) [11]; 125 g ai/ha): 100; Plant response rating, Ryegrass, Italian ([12]; 31 g ai/ha): 0; Plant response rating, Ryegrass, Italian ([12]; 125 g ai/ha): 20; Plant response rating, Pigweed ([13]; 31 g ai/ha): 100; Plant response rating, Pigweed ([13]; 125 g ai/ha): 100; Plant response rating, Barnyardgrass ([14]; 31 g ai/ha): 0; Plant response rating, Barnyardgrass ([14]; 125 g ai/ha): 70; Plant response rating, Pigweed ([15]; 31 g ai/ha): 50; Plant response rating, Pigweed ([15]; 125 g ai/ha): 50
N#Cc1cccc(Oc2ncc(Cl)cn2)c1OCCCF [Compound 15] | 20 | 50 | 0 | 10 | 50 | 80 | 0 | 20 | 30 | 90 | 0 | 10 | 0 | 0 | 0 | 20 | 0 | 0 | 10 | 10 | Plant response rating, Foxtail, Giant ([10]; 31 g ai/ha): 10; Plant response rating, Foxtail, Giant ([10]; 125 g ai/ha): 30; Plant response rating, Kochia (kochia (Kochia scoparia) [11]; 31 g ai/ha): 50; Plant response rating, Kochia (kochia (Kochia scoparia) [11]; 125 g ai/ha): 100; Plant response rating, Ryegrass, Italian ([12]; 31 g ai/ha): 0; Plant response rating, Ryegrass, Italian ([12]; 125 g ai/ha): 10; Plant response rating, Pigweed ([13]; 31 g ai/ha): 100; Plant response rating, Pigweed ([13]; 125 g ai/ha): 100; Plant response rating, Barnyardgrass ([14]; 31 g ai/ha): 60; Plant response rating, Barnyardgrass ([14]; 125 g ai/ha): 90; Plant response rating, Pigweed ([15]; 31 g ai/ha): 60; Plant response rating, Pigweed ([15]; 125 g ai/ha): 70
